Values quoted from earlier work, collected in patent publication US8653094B2, “Solid forms of (S)-ethyl 2-amino-3-(4-(2-amino-6-((R)-1-(4-chloro-2-(3-methyl-1H-pyrazol-1-yl)phenyl)-2,2,2-trifluoroethoxy)-pyrimidin-4-yl)phenyl)propanoate and methods of their use” (Lexicon Pharmaceuticals, Inc., priority 2007, dated 2014).

Tests used:
[1] = tested on: tryptophan hydroxylase; settings: statement in words; see U.S. patent application No. 60/874,596
[2] = tested on: peripheral serotonin levels; settings: when administered to animals; see U.S. patent application No. 60/874,596

## CCOC(=O)[C@@H](N)Cc1ccc(-c2cc(O[C@H](c3ccc(Cl)cc3-n3ccc(C)n3)C(F)(F)F)nc(N)n2)cc1 [(S)-ethyl 2-amino-3-(4-(2-amino-6-((R)-1-(4-chloro-2-(3-methyl-1H-pyrazol-1-yl)phenyl)-2,2,2-trifluoroethoxy)pyrimidin-4-yl)phenyl)propanoate]
[1]
  tryptophan hydroxylase inhibition: inhibitor of tryptophan hydroxylase
[2]
  effect on peripheral serotonin levels: decreases peripheral serotonin levels
